Tests used:
[1] = system: Streptococcus pyogenes C203; assay: MIC, standard agar-dilution assay (Table II); type: cell-based; set-up: unit not given here
Procedure: (§1) The MIC's in Table II were determined by standard agar-dilution assays. The MIC's in Table III were obtained using a conventional broth-dilution microtiter test.

[2] = system: Staphylococcus aureus X1.1; assay: MIC, standard agar-dilution assay (Table II); type: cell-based; set-up: unit not given here
Procedure: as §1

[3] = system: Staphylococcus aureus X400; assay: MIC, standard agar-dilution assay (Table II); type: cell-based; set-up: unit not given here; conditions: Staphylococcus aureus X400, methicillin-resistant strain
Procedure: as §1

[4] = system: Streptococcus pneumoniae Park I; assay: MIC, standard agar-dilution assay (Table II); type: cell-based; set-up: unit not given here
Procedure: as §1

[5] = system: Staphylococcus epidermidis EPI1; assay: MIC, standard agar-dilution assay (Table II); type: cell-based; set-up: unit not given here
Procedure: as §1

[6] = system: Streptococcus Group D 9960; assay: MIC, standard agar-dilution assay (Table II); type: cell-based; set-up: unit not given here
Procedure: as §1

[7] = system: Staphylococcus epidermidis EPI2; assay: MIC, standard agar-dilution assay (Table II); type: cell-based; set-up: unit not given here
Procedure: as §1

[8] = system: Staphylococcus aureus V41; assay: MIC, standard agar-dilution assay (Table II); type: cell-based; set-up: unit not given here; conditions: Staphylococcus aureus V41, penicillin-resistant strain
Procedure: as §1

[9] = system: Streptococcus Group D X66; assay: MIC, standard agar-dilution assay (Table II); type: cell-based; set-up: unit not given here
Procedure: as §1

[10] = system: Staphylococcus aureus S13E; assay: MIC, standard agar-dilution assay (Table II); type: cell-based; set-up: unit not given here
Procedure: as §1

Pasteurella multocida = assay: Treatment of Pasteurella infections in chicks (Table V); type: in vivo, one-day-old chicks; conditions: 30 mg/kg by subcutaneous injection one and four hours post challenge; for mortality at 30 mg/kg: Pasteurella multocida, sc, 4 h, read-out: Deaths in Treated Chicks/Number Treated (converted)
Outline: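 Dosing was 30 mg/kg by subcutaneous injection, one and four hours after challenge. Day-old chicks received 0.1 ml of a 10^-3 dilution of a 20-hour tryptose broth culture of avian P. multocida subcutaneously. Nonmedicated infected chicks served as controls, ten per group.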

Mycoplasma hyorhinis = assay: MIC, broth-dilution microtiter test (Table III); type: cell-based; set-up: unit not given here
Procedure: as §1

[11] = system: Pasteurella multocida 17E; assay: MIC, broth-dilution microtiter test (Table III); type: cell-based; set-up: unit not given here; conditions: bovine isolate
Procedure: as §1

Staphylococcus aureus = assay: MIC, broth-dilution microtiter test (Table III); type: cell-based; set-up: unit not given here
Procedure: as §1

[12] = system: Pasteurella haemolytica 22C; assay: MIC, broth-dilution microtiter test (Table III); type: cell-based; set-up: unit not given here
Procedure: as §1

[13] = system: Pasteurella haemolytica 23C; assay: MIC, broth-dilution microtiter test (Table III); type: cell-based; set-up: unit not given here
Procedure: as §1

[14] = system: Pasteurella multocida 40G; assay: MIC, broth-dilution microtiter test (Table III); type: cell-based; set-up: unit not given here
Procedure: as §1

Mycoplasma gallisepticum = assay: MIC, broth-dilution microtiter test (Table III); type: cell-based; set-up: unit not given here
Procedure: as §1

[15] = system: Pasteurella multocida 22A; assay: MIC, broth-dilution microtiter test (Table III); type: cell-based; set-up: unit not given here
Procedure: as §1

Mycoplasma synoviae = assay: MIC, broth-dilution microtiter test (Table III); type: cell-based; set-up: unit not given here
Procedure: as §1

Streptococcus sp. 80 = assay: MIC, broth-dilution microtiter test (Table III); type: cell-based; set-up: unit not given here
Procedure: as §1

[16] = system: Pasteurella multocida 60A; assay: MIC, broth-dilution microtiter test (Table III); type: cell-based; set-up: unit not given here; conditions: avian isolate
Procedure: as §1

[17] = system: Pasteurella multocida 68C; assay: MIC, broth-dilution microtiter test (Table III); type: cell-based; set-up: unit not given here
Procedure: as §1

[18] = system: Pasteurella haemolytica 41D; assay: MIC, broth-dilution microtiter test (Table III); type: cell-based; set-up: unit not given here
Procedure: as §1

[19] = system: Haemophilus influenzae R252; assay: MIC, standard agar-dilution assay (Table II); type: cell-based; set-up: unit not given here; conditions: Haemophilus influenzae R252, ampicillin-resistant strain
Procedure: as §1

[20] = system: Haemophilus influenzae Holt; assay: MIC, standard agar-dilution assay (Table II); type: cell-based; set-up: unit not given here; conditions: ampicillin-sensitive strain
Procedure: as §1

Row | Compound | minimal inhibitory concentration (MIC) [1] | minimal inhibitory concentration (MIC) [2] | minimal inhibitory concentration (MIC) [3] | minimal inhibitory concentration (MIC) [4] | minimal inhibitory concentration (MIC) [5] | minimal inhibitory concentration (MIC) [6] | minimal inhibitory concentration (MIC) [7] | minimal inhibitory concentration (MIC) [8] | minimal inhibitory concentration (MIC) [9] | minimal inhibitory concentration (MIC) [10] | minimal inhibitory concentration (MIC) (Mycoplasma hyorhinis) | minimal inhibitory concentration (MIC) [11] | minimal inhibitory concentration (MIC) (Staphylococcus aureus) | minimal inhibitory concentration (MIC) [12] | minimal inhibitory concentration (MIC) [13] | minimal inhibitory concentration (MIC) [14] | minimal inhibitory concentration (MIC) (Mycoplasma gallisepticum) | minimal inhibitory concentration (MIC) [15] | minimal inhibitory concentration (MIC) (Streptococcus sp. 80) | minimal inhibitory concentration (MIC) [16] | further results
1 | CCC1OC(=O)CC(O)C(C)C(OC2OC(C)C(OC(C)=O)C(N(C)C)C2OC(C)=O)C(CC=O)CC(C)C(=O)C=CC(C)=CC1COC(=O)Cc1cccnc1 (stereo not shown) [Compound 43, 2',4'-Di-O-acetyl-23O-(3-pyridylacetyl)-OMT] | 0.06 | 0.25 | 0.5 | 0.06 | 0.25 | 0.25 | 0.5 | 0.5 | 0.25 | 0.25 | 0.78 | 3.12 | 0.39 | 6.25 | 6.25 | 3.12 | 0.78 | 3.12 | 0.195 | 3.12 | mortality at 30 mg/kg (Pasteurella multocida): 80%; minimal inhibitory concentration (MIC) (Mycoplasma synoviae): < 0.05; minimal inhibitory concentration (MIC) [17]: 1.56; minimal inhibitory concentration (MIC) [18]: 3.12
2 | CCC1OC(=O)CC(O)C(C)C(OC2OC(C)C(O)C(N(C)C)C2OC(C)=O)C(CC=O)CC(C)C(=O)C=CC(C)=CC1COC(=O)Cc1ccc(Cl)cc1 (stereo not shown) [Compound 31, 2'-O-Acetyl-23-O-(p-chlorophenylacetyl)-OMT] | 0.125 | 0.125 | 0.25 | 0.03 | 0.125 | 0.125 | 0.25 | 0.125 | 0.125 | 0.125 | 3.12 | 1.56 | < 0.05 | 1.56 | 1.56 | 1.56 | < 0.05 | 1.56 | < 0.05 | 0.78 | mortality at 30 mg/kg (Pasteurella multocida): 100%; minimal inhibitory concentration (MIC) (Mycoplasma synoviae): < 0.05; minimal inhibitory concentration (MIC) [17]: 0.78; minimal inhibitory concentration (MIC) [18]: 3.12
3 | CCC1OC(=O)CC(O)C(C)C(OC2OC(C)C(OC(C)=O)C(N(C)C)C2OC(C)=O)C(CC=O)CC(C)C(=O)C=CC(C)=CC1COS(=O)(=O)c1ccc(NC(C)=O)cc1 (stereo not shown) [Compound 47, 23-O-(p-Acetamidobenzenesulfonyl)-2',4'-di-O-acetyl-OMT] | 0.125 | 1 | 2 | 0.125 | 1 | 1 | 2 | 2 | 1 | 1 | 12.5 | 6.25 | 0.78 | 12.5 | 12.5 | 12.5 | 0.195 | 12.5 | < 0.05 | 3.12 | mortality at 30 mg/kg (Pasteurella multocida): 90%; minimal inhibitory concentration (MIC) (Mycoplasma synoviae): 1.56; minimal inhibitory concentration (MIC) [17]: 3.12; minimal inhibitory concentration (MIC) [18]: 12.5
4 | CCC1OC(=O)CC(O)C(C)C(OC2OC(C)C(O)C(N(C)C)C2O)C(CC=O)CC(C)C(=O)C=CC(C)=CC1COC(=O)CCc1ccccc1 (stereo not shown) [Compound 54] | 0.06 | 0.125 | 0.25 | 0.015 | 0.125 | 0.125 | 0.25 | 0.25 | 0.125 | 0.125 | 0.78 | 0.78 | 0.195 | 3.12 | 3.12 | 3.12 | 0.097 | 6.25 | 0.195 | 1.56 | minimal inhibitory concentration (MIC) [19]: 0.25; minimal inhibitory concentration (MIC) [20]: 0.25; Deaths in Treated Chicks/Number Treated (Pasteurella multocida): 0/10; minimal inhibitory concentration (MIC) [17]: 0.78; minimal inhibitory concentration (MIC) [18]: 3.12
5 | CCC1OC(=O)CC(O)C(C)C(OC2OC(C)C(O)C(N(C)C)C2O)C(CC=O)CC(C)C(=O)C=CC(C)=CC1COC(=O)Cc1ccc(Cl)cc1 (stereo not shown) [Compound 32, 23-O-(p-Chlorophenylacetyl)-OMT] | 0.06 | 0.125 | 0.25 | 0.03 | 0.125 | 0.125 | 0.25 | 0.25 | 0.125 | 0.125 | 3.12 | 1.56 | 0.097 | 1.56 | 3.12 | 1.56 | < 0.05 | 0.78 | 0.097 | 0.78 | mortality at 30 mg/kg (Pasteurella multocida): 20%; minimal inhibitory concentration (MIC) (Mycoplasma synoviae): < 0.05; minimal inhibitory concentration (MIC) [17]: 0.39; minimal inhibitory concentration (MIC) [18]: 3.12
